Data published in paper PMC4556275 (Drug metabolism and pharmacokinetics, 2010).

Columns and labels:
[1] = Metabolite profiling in HLM incubations by MRM-IDA-EPI; type: in vitro ADME, human; conditions: HLM incubation, MRM-IDA-EPI method
[2] = Metabolic stability in pooled human liver microsomes; type: in vitro ADME; conditions: for CLint (microsomal): 1 μM substrate, 0.5 mg/mL HLM protein, 37°C; for ER (extraction ratio) / Hepatic CL: well-stirred model, Q 1400 mL/min, fu assumed 1

Row | Structure (SMILES) | number of metabolites formed and detected [1] | CLint (microsomal) [2] | ER (extraction ratio) [2] | Hepatic CL [2] [mL/min]
1 | O=C(C1CCC(F)(F)CC1)N1CC(=O)N2CCc3ccccc3C2C1 (stereo not drawn) [PZ02, 2-(4,4-difluorocyclohexyl)carbonyl-1,2,3,6,7,11b-hexahydro-4H-pyrazino(2,1-α)isoquinoline-4-one] | Nine | 22.8 μl/min/mg microsomal protein | 0.44 | 620.2
2 | O=C(N1CCCCC1)N1CC(=O)N2CCc3ccccc3C2C1 (stereo not drawn) [PZ07, 2-piperidinylcarbonyl-1,2,3,6,7,11b-hexa-hydro-4H-pyrazino(2,1-α)isoquinoline-4-one] |  | 22.0 μl/min/mg microsomal protein | 0.43 | 607.9
3 | O=C(N1CCC(F)(F)CC1)N1CC(=O)N2CCc3ccccc3C2C1 (stereo not drawn) [PZ10, 2-(4,4-difluoropiperidinyl)carbonyl-1,2,3,6,7,11b-hexa-hydro-4H-pyrazino(2,1-α)isoquinoline-4-one] | Eight | 16.2 μl/min/mg microsomal protein | 0.36 | 505.5
